{
  "source": "ChEMBL document CHEMBL1150509",
  "about": "“Cycloalkylpiperazines as HIV-1 protease inhibitors: enhanced oral absorption” (Bioorg Med Chem Lett, 1995)",
  "key": {"[1]": {"tested_on": "Human immunodeficiency virus 1", "test": "Tested in vitro against MT-4 human lymphoid cells infected with the type IIIb isolate", "assay_type": "functional", "details": "Human immunodeficiency virus 1, lymphoid; read-out: CIC95"}, "[2]": {"target": "Human immunodeficiency virus type 1 protease (Human immunodeficiency virus 1, UniProt Q72874)", "test": "Tested in vitro for the ability to inhibit HIV-1 protease"}, "[3]": {"tested_on": "Human immunodeficiency virus 1", "test": "Ratio of CIC95 to that of IC50 was determined", "assay_type": "functional"}},
  "data": [
    {"smiles": "CCCCCCCCN1CCN(C[C@@H](O)[C@H](Cc2ccccc2)NC(=O)O[C@@H]2CCS(=O)(=O)[C@@H]2C(C)C)[C@H](C(=O)NC(C)(C)C)C1", "values": [
      {"measurement": "IC95", "setting": "[1]", "result": 200, "unit": "nM"}
    ]},
    {"smiles": "CC(C)[C@@H]1[C@H](OC(=O)N[C@@H](Cc2ccccc2)[C@H](O)CN2CCN(C3CCCCCC3)C[C@H]2C(=O)NC(C)(C)C)CCS1(=O)=O", "values": [
      {"measurement": "IC95", "setting": "[1]", "result": 200, "unit": "nM"}
    ]},
    {"smiles": "CC(C)[C@@H]1[C@H](OC(=O)N[C@@H](Cc2ccccc2)[C@H](O)CN2CCN(CC(C)(C)C)C[C@H]2C(=O)NC(C)(C)C)CCS1(=O)=O", "values": [
      {"measurement": "IC95", "setting": "[1]", "result": 200, "unit": "nM"}
    ]},
    {"smiles": "CC(C)[C@@H]1[C@H](OC(=O)N[C@@H](Cc2ccccc2)[C@H](O)CN2CCN(C3CCCCC3)C[C@H]2C(=O)NC(C)(C)C)CCS1(=O)=O", "values": [
      {"measurement": "IC95", "setting": "[1]", "result": 200, "unit": "nM"}
    ]},
    {"smiles": "CC(C)[C@@H]1[C@H](OC(=O)N[C@@H](Cc2ccccc2)[C@H](O)CN2CCN(C3CCCC3)C[C@H]2C(=O)NC(C)(C)C)CCS1(=O)=O", "values": [
      {"measurement": "IC95", "setting": "[1]", "result": 150, "unit": "nM"}
    ]},
    {"smiles": "CC(C)[C@@H]1[C@H](OC(=O)N[C@@H](Cc2ccccc2)[C@H](O)CN2CCN(C3CC3)C[C@H]2C(=O)NC(C)(C)C)CCS1(=O)=O", "values": [
      {"measurement": "IC95", "setting": "[1]", "result": 100, "unit": "nM"}
    ]},
    {"smiles": "CC(C)[C@@H]1[C@H](OC(=O)N[C@@H](Cc2ccccc2)[C@H](O)CN2CCN(C3CCSC3)C[C@H]2C(=O)NC(C)(C)C)CCS1(=O)=O", "note": "(some centres not stated)", "values": [
      {"measurement": "IC50", "setting": "[2]", "result": 8.3, "unit": "nM"},
      {"measurement": "IC95", "setting": "[1]", "result": "> 200", "unit": "nM"}
    ]},
    {"smiles": "CC(C)[C@@H]1[C@H](OC(=O)N[C@@H](Cc2ccccc2)[C@H](O)CN2CCN(C3CCOCC3)C[C@H]2C(=O)NC(C)(C)C)CCS1(=O)=O", "values": [
      {"measurement": "IC50", "setting": "[2]", "result": 34.6, "unit": "nM"},
      {"measurement": "IC95", "setting": "[1]", "result": "> 200", "unit": "nM"}
    ]},
    {"smiles": "CC(C)CN1CCN(C[C@@H](O)[C@H](Cc2ccccc2)NC(=O)O[C@@H]2CCS(=O)(=O)[C@@H]2C(C)C)[C@H](C(=O)NC(C)(C)C)C1", "values": [
      {"measurement": "IC95", "setting": "[1]", "result": 100, "unit": "nM"}
    ]},
    {"smiles": "CC(C)[C@@H]1[C@H](OC(=O)N[C@@H](Cc2ccccc2)[C@H](O)CN2CCN(C3CC(c4ccccc4)C3)C[C@H]2C(=O)NC(C)(C)C)CCS1(=O)=O", "note": "(some centres not stated)", "values": [
      {"measurement": "IC50", "setting": "[2]", "result": 3.8, "unit": "nM"},
      {"measurement": "IC95", "setting": "[1]", "result": 100, "unit": "nM"},
      {"measurement": "Ratio", "setting": "[3]", "result": 26}
    ]},
    {"smiles": "CC(C)[C@@H]1[C@H](OC(=O)N[C@@H](Cc2ccccc2)[C@H](O)CN2CCN(C(C)C)C[C@H]2C(=O)NC(C)(C)C)CCS1(=O)=O", "values": [
      {"measurement": "IC95", "setting": "[1]", "result": "> 200", "unit": "nM"}
    ]},
    {"smiles": "CC(C)[C@@H]1[C@H](OC(=O)N[C@@H](Cc2ccccc2)[C@H](O)CN2CCN(C3CCSCC3)C[C@H]2C(=O)NC(C)(C)C)CCS1(=O)=O", "values": [
      {"measurement": "IC95", "setting": "[1]", "result": 200, "unit": "nM"}
    ]},
    {"smiles": "CC(C)[C@@H]1[C@H](OC(=O)N[C@@H](Cc2ccccc2)[C@H](O)CN2CCN(C3CCC3)C[C@H]2C(=O)NC(C)(C)C)CCS1(=O)=O", "values": [
      {"measurement": "IC95", "setting": "[1]", "result": 50, "unit": "nM"}
    ]},
    {"smiles": "CCCN1CCN(C[C@@H](O)[C@H](Cc2ccccc2)NC(=O)O[C@@H]2CCS(=O)(=O)[C@@H]2C(C)C)[C@H](C(=O)NC(C)(C)C)C1", "values": [
      {"measurement": "IC95", "setting": "[1]", "result": 100, "unit": "nM"}
    ]},
    {"smiles": "CC(C)[C@@H]1[C@H](OC(=O)N[C@@H](Cc2ccccc2)[C@H](O)CN2CCN(C3Cc4ccccc4C3)C[C@H]2C(=O)NC(C)(C)C)CCS1(=O)=O", "values": [
      {"measurement": "IC50", "setting": "[2]", "result": 5.3, "unit": "nM"},
      {"measurement": "IC95", "setting": "[1]", "result": 100, "unit": "nM"},
      {"measurement": "Ratio", "setting": "[3]", "result": 19}
    ]},
    {"smiles": "CCC(CC)N1CCN(C[C@@H](O)[C@H](Cc2ccccc2)NC(=O)O[C@@H]2CCS(=O)(=O)[C@@H]2C(C)C)[C@H](C(=O)NC(C)(C)C)C1", "values": [
      {"measurement": "IC95", "setting": "[1]", "result": "> 200", "unit": "nM"}
    ]}
  ]
}
